The structures appear in SMILES notation. A value given as a limit tells only on which side of the number the result lay.

Data set [1] addresses T1, human PLK1 (Homo sapiens, UniProt P53350).
T1 construct: FLAG (DYKDDDDK) (N); made in house; host or cells: Sf21 insect cells, recombinant baculovirus (pFASTBAC1, Bac-to-Bac)
The data set is described as follows: PLK1 in vitro enzymatic activity assay (phosphorylation of alpha casein by recombinant PLK1). Format: biochemical. As to conditions: recombinant FLAG-tagged PLK1, alpha casein substrate, 500 nmol/L ATP, 40 min at room temperature; read-out: pIC50 (PLK1) (converted). In a few lines:
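Recombinant PLK1 from baculovirus-infected Sf21 cells (50 ng) phosphorylated 3 μg alpha casein for 40 min at room temperature in HEPES pH 7.5, Mg acetate, DTT buffer with 500 nmol/L ATP plus [γ-32P]ATP. TCA-precipitated phosphoprotein was filter-captured, washed, and counted by scintillation.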

T1 sequence (P53350 with tags, fused parts or gaps): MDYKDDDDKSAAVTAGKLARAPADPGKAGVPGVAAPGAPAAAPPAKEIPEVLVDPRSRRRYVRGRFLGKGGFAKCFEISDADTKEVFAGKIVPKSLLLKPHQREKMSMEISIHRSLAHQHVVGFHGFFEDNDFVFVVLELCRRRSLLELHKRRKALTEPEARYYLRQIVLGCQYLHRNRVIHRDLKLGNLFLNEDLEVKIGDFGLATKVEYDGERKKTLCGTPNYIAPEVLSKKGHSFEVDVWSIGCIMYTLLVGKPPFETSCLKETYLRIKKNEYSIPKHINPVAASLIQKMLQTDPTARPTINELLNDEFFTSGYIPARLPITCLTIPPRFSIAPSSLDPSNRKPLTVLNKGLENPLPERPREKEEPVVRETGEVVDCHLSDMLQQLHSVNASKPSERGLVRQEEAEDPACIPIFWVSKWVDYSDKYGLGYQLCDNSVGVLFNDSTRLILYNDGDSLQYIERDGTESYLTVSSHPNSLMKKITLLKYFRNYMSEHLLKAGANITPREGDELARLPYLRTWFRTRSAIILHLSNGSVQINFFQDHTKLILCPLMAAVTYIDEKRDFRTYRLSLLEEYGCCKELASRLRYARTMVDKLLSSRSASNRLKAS

For `COc1cc(C(=O)NC2CN(C)C2)ccc1Nc1ncc2c(n1)N(C1CCCC1)CC(F)(F)C(=O)N2C` [Compound 4, 4-(9-Cyclopentyl-7,7-difluoro-5-methyl-6-oxo-6,7,8,9-tetrahydro-5H-pyrimido[4,5-b][1,4]diazepin-2-ylamino)-3-methoxy-N-(1-methylazetidin-3-yl)benzamide], the melting point (as a rule, the temperature, or range, at which the solid turns liquid) fell in the range of 157 to 162 °C. Also, the IC50 in data set [1] was at most 2 nM.

As to `COc1cc(C(=O)NN2CCN(C)CC2)ccc1Nc1ncc2c(n1)N(C1CCCC1)CC(F)(F)C(=O)N2C` [Compound 6, 4-(9-cyclopentyl-7,7-difluoro-5-methyl-6-oxo-6,7,8,9-tetrahydro-5H-pyrimido[4,5-b][1,4]diazepin-2-ylamino)-3-methoxy-N-(4-methylpiperazin-1-yl)benzamide], the melting point was 168 to 174 °C.

`COc1cc(C(=O)N[C@@H]2CCN(C)C2)ccc1Nc1ncc2c(n1)N(C1CCCCC1)CC(F)(F)C(=O)N2C` [Compound 39, (R)-4-(9-cyclohexyl-7,7-difluoro-5-methyl-6-oxo-6,7,8,9-tetrahydro-5H-pyrimido[4,5-b][1,4]diazepin-2-ylamino)-3-methoxy-N-(1-methylpyrrolidin-3-yl)benzamide]: the melting point lay within 98 to 99 °C. Further, in data set [1], the IC50 was over 2 nM.

Turning to `COc1cc(C(=O)NC2CCC(N(C)C)CC2)ccc1Nc1ncc2c(n1)N(C1CCCCC1)CC(F)(F)C(=O)N2C` (stereo not drawn) [Compound 49, 4-(9-cyclohexyl-7,7-difluoro-5-methyl-6-oxo-6,7,8,9-tetrahydro-5H-pyrimido[4,5-b][1,4]diazepin-2-ylamino)-N-(4-(dimethylamino)cyclohexyl)-3-methoxybenzamide], the melting point was 208 to 214 °C. In data set [1], the IC50 is at most 2 nM.

The molecule `COc1cc(C(=O)NC2CCN(CC(F)(F)F)CC2)ccc1Nc1ncc2c(n1)N(C1CCCCC1)CC(F)(F)C(=O)N2C` [Compound 50, 4-(9-cyclohexyl-7,7-difluoro-5-methyl-6-oxo-6,7,8,9-tetrahydro-5H-pyrimido[4,5-b][1,4]diazepin-2-ylamino)-3-methoxy-N-(1-(2,2,2-trifluoroethyl)piperidin-4-yl)benzamide] had a melting point of 213 to 215 °C. Also, the IC50 in data set [1] was at most 2 nM.

`COc1cc(C(=O)NN2CCN(C3CCCC3)CC2)ccc1Nc1ncc2c(n1)N(C1CCCCC1)CC(F)(F)C(=O)N2C` [Compound 52, 4-(9-cyclohexyl-7,7-difluoro-5-methyl-6-oxo-6,7,8,9-tetrahydro-5H-pyrimido[4,5-b][1,4]diazepin-2-ylamino)-N-(4-cyclopentylpiperazin-1-yl)-3-methoxybenzamide] had a melting point of 98 to 99 °C. Also, the IC50 in data set [1] was over 2 nM.

Molecule `COc1cc(C(=O)NC2CCN(C(=O)CN(C)C)CC2)ccc1Nc1ncc2c(n1)N(C1CCCCC1)CC(F)(F)C(=O)N2C` [Compound 71, 4-(9-cyclohexyl-7,7-difluoro-5-methyl-6-oxo-6,7,8,9-tetrahydro-5H-pyrimido[4,5-b][1,4]diazepin-2-ylamino)-N-(1-(2-(dimethylamino)acetyl)piperidin-4-yl)-3-methoxybenzamide] yielded a melting point of 190 to 191 °C. Moreover, in data set [1], the IC50 is at most 2 nM.

Molecule `COc1cc(C(=O)N[C@H]2CCNC2)ccc1Nc1ncc2c(n1)N(C1CCCCC1)CC(F)(F)C(=O)N2C` [Compound 72, (S)-4-(9-cyclohexyl-7,7-difluoro-5-methyl-6-oxo-6,7,8,9-tetrahydro-5H-pyrimido[4,5-b][1,4]diazepin-2-ylamino)-3-methoxy-N-(pyrrolidin-3-yl)benzamide] gave a melting point of 258 to 263 °C. The IC50 in data set [1] is at most 2 nM.

Turning to `COc1cc(C(=O)N[C@@H]2CCNC2)ccc1Nc1ncc2c(n1)N(C1CCCCC1)CC(F)(F)C(=O)N2C` [Compound 73, (R)-4-(9-cyclohexyl-7,7-difluoro-5-methyl-6-oxo-6,7,8,9-tetrahydro-5H-pyrimido[4,5-b][1,4]diazepin-2-ylamino)-3-methoxy-N-(pyrrolidin-3-yl)benzamide], the melting point is 195 to 198 °C. Further, in data set [1], the IC50 is at most 2 nM.

`C=CC1(F)CN(C2CCCC2)c2nc(Nc3ccc(C(=O)N[C@@H]4CCCNC4)cc3OC)ncc2N(C)C1=O` (stereo partly drawn) [Compound 102, 4-(9-cyclopentyl-7-fluoro-5-methyl-6-oxo-7-vinyl-6,7,8,9-tetrahydro-5H-pyrimido[4,5-b][1,4]diazepin-2-ylamino)-3-methoxy-N—((R)-piperidin-3-yl)benzamide] showed a melting point of 169 to 172 °C. In addition, the IC50 in data set [1] is at most 2 nM.

Regarding `COc1cc(C(=O)N2CCN(CC3CC3)CC2)ccc1Nc1ncc2c(n1)N(C1CCCC1)CC(F)(F)C(=O)N2C` [Compound 134, 9-cyclopentyl-2-(4-(4-(cyclopropylmethyl)piperazine-1-carbonyl)-2-methoxyphenylamino)-7,7-difluoro-5-methyl-8,9-dihydro-5H-pyrimido[4,5-b][1,4]diazepin-6(7H)-one], the IC50 in data set [1] was over 2 nM.

As for `COc1cc(C(=O)N2CCN(CC3CC3)CC2)c(F)cc1Nc1ncc2c(n1)N(C1CCCC1)CC(F)(F)C(=O)N2C` [Compound 135, 9-cyclopentyl-2-(4-(4-(cyclopropylmethyl)piperazine-1-carbonyl)-5-fluoro-2-methoxyphenylamino)-7,7-difluoro-5-methyl-8,9-dihydro-5H-pyrimido[4,5-b][1,4]diazepin-6(7H)-one], the IC50 in data set [1] was over 2 nM.

Turning to `CN1C(=O)C(F)(F)CN(C2CCCC2)c2nc(Nc3cccc4c3OC(F)(F)O4)ncc21` [Compound 136, 9-cyclopentyl-2-(2,2-difluorobenzo[d][1,3]dioxol-4-ylamino)-7,7-difluoro-5-methyl-8,9-dihydro-5H-pyrimido[4,5-b][1,4]diazepin-6(7H)-one], in data set [1], the IC50 is over 2 nM.

As to `COc1cc(CO)ccc1Nc1ncc2c(n1)N(C1CCCC1)CC(F)(F)CN2C` [Compound 137, (4-(9-cyclopentyl-7,7-difluoro-5-methyl-6,7,8,9-tetrahydro-5H-pyrimido[4,5-b][1,4]diazepin-2-ylamino)-3-methoxyphenyl)methanol], the IC50 in data set [1] was over 2 nM.

On to `COc1cc(C(=O)NC2CCN(C)CC2)ccc1Nc1ncc2c(n1)N(C1CCCC1)CC(F)(F)CN2C` [Compound 138, 4-(9-cyclopentyl-7,7-difluoro-5-methyl-6,7,8,9-tetrahydro-5H-pyrimido[4,5-b][1,4]diazepin-2-ylamino)-3-methoxy-N-(1-methylpiperidin-4-yl)benzamide], for which the IC50 in data set [1] is over 2 nM.

(Values after patent US20110201818A1, “POLO-LIKE KINASE INHIBITORS” (TAKEDA PHARMACEUTICAL COMPANY LIMITED, priority 2007, published 2011).)
